Measured values from US10023615B2, “Efficient transport into white blood cells” (priority 2008, dated 2018).
Square brackets hold non-standard residues; d marks the D form. Ends that are not written are not given here.

How the values were obtained:
[1] = tested on: Kupffer cells (CD-14 positive cells) of the liver; assay: Liver cell localization of FITC-D-TAT after i.v. injection; type: in vivo, mouse; settings: 0.1 mg/kg i.v.
Experimental: FIG. 5: (A): Primary cultured macrophages were incubated with XG-102 (SEQ ID NO: 233) and extensively washed. […] (B): Mice were injected i.v. with 0.1 mg/kg FITC-D-TAT (SEQ ID NO: 4 plus FITC) and were sacrificed 24 hours later with PAF perfusion through the heart. Slices were obtained after cryoprotection using cryostat.
Mice were injected i.v. with 0.1 mg/kg of FITC-D-TAT (SEQ ID NO: 4) and were sacrificed by perfusion 24 h later. Liver was removed, cryoprotected and cut into slices with a cryostat. D-TAT was directly visualized via FITC fluorescence and cell nuclei were labeled with Hoechst dye. Hepatocytes are big cells (89% of liver cells) that display a large nucleus, whereas Kupffer cells (resident macrophages of the liver) represent approximately 10% of the cells and are small and thin, elongated cells with small nucleus.

liver and lymph nodes = assay: FITC-XG-102 and FITC-D-TAT localization in liver and lymph nodes; type: in vivo, Sprague Dawley rat; settings: 1 mg/kg i.v., 6 h post-injection
Text: FIG. 22A and FIG. 22B: 22A: FITC-XG-102 (SEQ ID NO: 233) localization in the liver. Three cellular fields of FITC-XG-102-labelled cells isolated from liver. From left to right, FITC-labelled XG-102, corresponding DAPI nuclear stain and merge of both images. […] Typicall Kupfer cell shape and nucleus can be differentiated from hepatocytes by their shape. Small and triangle in Kupfer cells in contrast to big exagonal, well organized hepatocytes. Obj 63; bar, 20 μm. 22B: FITC-D-TAT (SEQ ID NO: 4) localization in the liver. Two cellular fields of FITC-D-TAT-labelled cells isolated from liver. From left to right, FITC-labelled XG-102, corresponding DAPI nuclear stain and merge of both images. […] Typicall Kupfer cell shape and nucleus can be differentiated from hepatocytes by their shape. Small and triangle in Kupfer cells in contrast to big exagonal, well organized hepatocytes. Obj 63; bar, 20 μm.
(§1) FIG. 23A and FIG. 23B: 23A: FITC-XG-102 (SEQ ID NO: 233) localization in lymph nodes. Cellular field of FITC-XG-102-labelled cells isolated from lymph nodes. Upper panels from left to right: the composite image is organized with one cellular field stained with FITC-XG-102 (left), Dapi for nuclear stain (middle) and the corresponding merged image (right). In the lower panels, a zoomed cell cluster of each image is illustrated. […] The absence of FITC staining in the lymphoid follicles allows distinguishing from the medullary corde and cortex area. Medullary zone seems to have incorporated the FITC-XG-102, composed in majority by macrophages. Obj 10; bar, 50 μm.
as §1, with “23B:” for “FIG. 23A and FIG. 23B:”, “FITC-D-TAT” for “23A: FITC-XG-102”, “4)” for “233)”, “FITC-D-TAT-labelled” for “FITC-XG-102-labelled”, “FITC-D-TAT” for “FITC-XG-102”, “FITC-D-TAT,” for “FITC-XG-102,”
Female Sprague Dawley rat was injected i.v. in the tail with either 1 mg/kg of FITC-XG102 (SEQ ID NO:233) or 1 mg/kg FITC-D-TAT (SEQ ID NO:4). Rats were sacrified 6 h post-injection using a lethal dose of sodium pentobarbital (150 mg/kg i.p.). For histological analysis and during narcosis, rats were perfused through the heart with 4% paraformaldehyde (PFA) in PBS. Organs (liver and lymph nodes) were cryoprotected in sucrose (30% in PBS), frozen using liquid isopentane and kept for further cryostat sectioning. Sections of 14 μm were incubated for 5 min in PBS before Hoechst staining for 2 min at RT (1 μg/ml). […]

TC-3 cells = assay: Inhibition of IL-1 induced pancreatic beta-cell death; type: cell-based; settings: 1 μM single addition, IL-1 every two days, 15 days
Experimental: Inhibition of IL-1 induced pancreatic beta-cell death by the D-TAT-IB1(s) peptide was analyzed. TC-3 cells were incubated for 30 minutes with one single addition of the indicated peptides (1, μM), then IL-1 (10 ng/ml) was added.
Apoptotic cells were then counted after two days of incubation with IL-1 by use of Propidium Iodide and Hoechst 33342 nuclear staining. A minimum of 1,000 cells were counted for each experiment.
Long term inhibition of IL-1P induced cell-death by the D-TAT-IB1 peptide was also analyzed. TC-3 cells were incubated for 30 minutes with one single addition of the indicated peptides (1 μM), then IL-1 (10 ng/ml) was added, followed by addition of the cytokine every two days. Apoptotic cells were then counted after 15 days of incubation with IL-1 by use of propidium iodide and Hoechst 33342 nuclear staining. […] A minimum of 1.000 cells were counted for each experiment.

Hela cells = assay: Internalization of r3-L-TAT-derived transporters in Hela cells; type: cell-based; settings: 2, 6 or 24 hours; 0, 500 nM, 1 mM or 10 mM
Text: The time dependant internalization (uptake) of FITC-labeled TAT derived transporter constructs into cells of the HL-60 cell line was furthermore carried out with materials and methods as described above using sequences of the 96-FITC-labeled D-TAT derivative transporters. These sequences are listed below.
• In the above table D amino acids are indicated by a small “d” prior to the respective amino acid residue (e.g. dR=D-Arg). • For a few sequences synthesis failed in the first approach unfortunately due to technical reasons. […] Hela cells were incubated 24 hours in 96 well plate with […] of the r3-L-TAT-derived transporters. Alternatively, human lymphoma cells are used. The cells were then washed twice with an acidic buffer (0.2M Glycin, 0.15M NaCl, pH 3.0) and twice with PBS. Cells were broken by the addition of RIPA lysis buffer. […] Briefly, Hela cells were incubated 2, 6 or 24 hours in 24 well plate with increasing dose of the r3-L-TAT-derivative transporters (0, 500 nM, 1 mM or 10 mM). The cells were then washed twice with an acidic buffer (0.2M Glycin, 0.15M NaCl, pH 3.0) and twice with PBS. Cells were broken by the addition of RIPA lysis buffer.

U937 cells = assay: Intracellular concentration of transporter constructs subsequent to uptake into U937 cells; type: cell-based; settings: for intracellular concentration of transporter construct subsequent to uptake: U937 cells, 10 μM construct
Experimental: 9. Determination of Intracellular Concentration of Specific Transporter Constructs Subsequent to Uptake (Internalization) of these Peptides into U937 Cells • According to a further experiment, the concentration of specific transporter constructs subsequent to uptake (internalization) of these peptides into U937 cells were determined.

[2] = tested on: HepG2 hepatocarcinoma, HCT-116 tumoral colon; assay: Uptake of FITC-labeled TAT derived transporter constructs in HepG2 and HCT-116; type: cell-based, human; settings: 10 μM, 24 h
Lymphocytes B (CD19) = assay: Flow cytometry of FITC-transporter content in primary human white blood cells: lymphocytes B; type: cell-based; settings: 1 uM, 30 min
Text: (§2) Primary human white blood cells (WBC) were obtained from whole blood after red blood cell lysis. […] Cells containing D-TAT-FITC and r3-L-TAT-FITC were finally analysed by flow cytometry to measure their respective transporter content.

Monocytes (CD14) = assay: Flow cytometry of FITC-transporter content in primary human white blood cells: monocytes; type: cell-based; settings: 1 uM, 30 min
Text: as §2

Lymphocytes T (CD3) = assay: Flow cytometry of FITC-transporter content in primary human white blood cells: lymphocytes T; type: cell-based; settings: 1 uM, 30 min
Text: as §2

U937 lymphoma cells = assay: Uptake (internalization) of FITC-labeled TAT derived transporter constructs in U937 cells, fluorescence plate reader; type: cell-based
Experimental: Cells were plated into poly-DL-lysine coated dishes at a concentration of 1×10^6 cells/ml. Plates were then incubated for 24 h at 37° C., 5% CO2, and 100% relative humidity prior to the addition of a known concentration of peptide. After peptide addition, the cells were incubated 30 min, 1, 6 or 24 h at 37° C., 5% CO2, and 100% relative humidity. Cells were then washed twice with an acidic buffer (Glycin 0.2 M, NaCl 0.15 M, pH 3.0) in order to remove the cell-surface adsorbed peptide (see Kameyama et al., (2007), Biopolymers, 88, 98-107). […] The cell wash using an acidic buffer was thus employed to remove the cell-surface adsorbed peptides. […] Cells were broken by the addition of the RIPA lysis buffer. The relative amount of internalized peptide was then determined by fluorescence after background substraction and protein content normalization. • The steps are thus: 1. […] Analysis of peptide internalization with a fluorescence plate reader • f) Cell Culture and Peptide Treatment • (1) The 6 well culture plates are coated with 3 ml of Poly-D-Lys (Sigma P9011; 25 μg/ml in PBS), the 24 well plates with 600 μl and the 96 well plates with 125 μl and incubated for 4 h at 37° C., CO2 5% and 100% relative humidity. • (2) After 4 hours the dishes were washed twice with 3.5 ml PBS, 700 μl or 150 μl PBS for the 6, 24 or 96 well plates, respectively. • (3) The cells were plated into the dishes in 2.4 ml medium (RPMI) at plating densities of 1′000′000 cells/ml for suspension cells. After inoculation, the plates were incubated at 37° C., 5% CO2 and 100% relative humidity for 24 hours prior to the addition of the peptide. Adherent cells should be at a density of 90-95% the day of treatment and were plated in DMEM :
• (4) The cells were treated with the desired concentration of FITC labeled peptide (stock solution at a concentration of 10 mM in H2O). • (5) Following peptide addition, the cells were incubated 0 to 24 hours (e.g. 30 min, 1, 6 or 24 hours) at 37° C., CO2 5% and 100% relative humidity. • Acidic Wash and Cellular Extracts: • (6) The extracts were cooled on ice. • Suspension cells (or cells, which don attach well to the dish): • Transfer the cells in ? […] To recover the maximum of cells, wash the dish with 1 ml of PBS. • Harvest the cells 2 min at 2400 rpm max. • Suspend the cells in 1 ml cold PBS. • Transfer the cells into a coated “Eppendorf tube” (coated with 1 ml of poly D-Lys for 4 hours and washed twice with 1 ml PBS). • Wash three times with 1 ml of cold acidic wash buffer and centrifuge 2 min at 2400 rpm max. Beware of the spreading of the cells in the “eppendorf”. • Wash twice with 1 ml cold PBS to neutralize. • Add 50 μl of lysis RIPA Buffer. • Incubate 30 min-1 h on ice with agitation. • Adherent Cells: • Wash three times with 3 ml, 1 ml or 200 μl (for 6, 24 or 96 well plates, respectively) of cold acidic wash buffer. Beware of the cells who detach from the dish. • Wash twice with 1 ml cold PBS (for 6, 24 or 96 well plates, respectively) to neutralize. • Add 50 μl of lysis RIPA buffer. • Incubate 30 min-1 h on ice with agitation. • Scrap the cells with a cold scrapper. The 24 and 96 well plates were directly centrifuged at 4000 rpm at 4° for 15 min to remove the cellular debris. Then the supernatants (100 or 50 ml respectively for the 24 or 96 well plates) were directly transferred in a dark 96 well plated.

[3] = tested on: dissociated cortical primary neurons; assay: Confocal microscopy of FITC-labeled TAT derivative transporters in cortical primary neurons; type: cell-based, rat; settings: 500 nM, 24 hours
Experimental: 8.4 Internalization Experiments and Analysis • The time dependant internalization (uptake) of FITC-labeled TAT derived transporter constructs into cells of the HL-60 cell line was carried out with materials and methods as described above. • Briefly, HL-60 cells were incubated 30 min, 1, 6 or 24 hours with 10 μM of the TAT-derivative transporters. The cells were then washed twice with an acidic buffer (0.2 M Glycin, 0.15 M NaCl, pH 3.0) and twice with PBS. Cells were broken by the addition of RIPA lysis buffer. The relative amount of internalized peptide was then determined by reading the fluorescence intensity (Fusion Alpha plate reader; PerkinElmer) of each extract followed by background substraction and protein content normalization. […] The dissociated cortical primary neurons from P2 Sprague Dawley rats were cultured 12 days in neurobasal medium before exposure 24 hours to 500 nM of the FITC-labeled • TAT derivative transporters. The cells were washed five times with PBS on ice and then mounted in fluorsave mounting medium without prior fixation. Acquisitions were performed on LSM510 metaconfocal microscope (Zeiss). Images were processed with LSM510 software and mounted using Adobe photoshop. Visualization by confocal microscopy of labeling with 500 nM FITC-transporters (A: green). Nuclei were stained by Hoechst (B: blue).

Neutrophils (CD15) = assay: Flow cytometry of FITC-transporter content in primary human white blood cells: neutrophils; type: cell-based; settings: 1 uM, 30 min
Text: as §2

[4] = Tissue distribution of C14 radiolabeled D-TAT-tagged peptides; type: in vivo, mouse; settings: 1 mg/kg s.c., i.v., i.p.; 72 hours after injection
Experimental: Mice were treated via three different routes of administration (s.c., i.v., i.p.) with radiolabeled peptides with C^14 (1 mg/kg). Animals were sacrificed 72 hours after injection and processed for immunoradiography. […] This illustrates that the transporter D-TAT is responsible for the tissue distribution.

## N=C(N)NCCC[C@@H](NC(=O)[C@@H](CCCCN)NC(=O)[C@@H](CCCCN)NC(=O)[C@@H](CCCNC(=N)N)NC(=O)[C@@H](CCCNC(=N)N)NC(=O)[C@@H](CCC(N)=O)NC(=O)[C@@H](CCCNC(=N)N)NC(=O)[C@@H](CCCNC(=N)N)NC(=O)[C@@H](CCCNC(=N)N)NC(=O)CCNC(=S)Nc1ccc2c(c1)C(=O)OC21c2ccc(O)cc2Oc2cc(O)ccc21)C(N)=O [FITC-D-TAT, FITC-βA-rrrqrrkkr]
[1]; 24 h
  cell type of accumulation in liver: accumulates predominantly in Kupffer cells
[1]; 24 hours
  colocalization with CD-14 positive cells in liver: colocalization between FITC-D-TAT labelled-cells and CD-14 positive cells
Liver and lymph nodes
  localization in lymph nodes: decorates subcapsular sinus macrophages and constitutive migrating alveolar macrophages
  localization in the liver: efficiently decorates Kupfer cells in contrast to hepatocytes which only show a background staining level

## L-TAT-IB1(s): SEQ ID NO: 234: L-IB1(s) linked to 10 amino acid L-TAT carrier via two proline residues (GRKKRRQRRRPPRPKRPTTLNLFPQVPRSQD; Description of sequence L-TAT-IB1 (s))
TC-3 cells
  long term protection against IL-1 induced cell-death: but not L-TAT-IB1(s), was able to confer long term (15 day) protection

## rYKRrQRRr ([dR]YKR[dR]QRR[dR]) [TAT(s2-91)]
Hela cells
  transporter activity and kinetics of transport activity: highest transporter activity
U937 cells; 10 μM in medium
  accumulation in the cell (intracellular concentration): significantly higher than the concentration of the transporter construct in the medium
U937 cells; 2 h
  intracellular concentration of transporter construct subsequent to uptake: 3.16
U937 cells; 4 h
  intracellular concentration of transporter construct subsequent to uptake: 4.27
U937 cells; 6 h
  intracellular concentration of transporter construct subsequent to uptake: 4.68
U937 cells; 24 h
  intracellular concentration of transporter construct subsequent to uptake: 50

## rrrRRRrrr [r6R3]
[2]
  uptake (internalization): most efficient

## rrrqrrkkr [D-TAT]
Lymphocytes B (CD19)
  binding to cell population: less efficiently to lymphocyte B cells
[2]
  uptake (internalization): most efficient
Monocytes (CD14)
  binding to cell population: binds to monocytes, neutrophils and lymphocyte T cells
Lymphocytes T (CD3)
  binding to cell population: seeming to bind more efficiently to lymphocyte T than the r3-L-TAT
Lymphocytes T (CD3); listed as dTAT
  binding to cell population: binds to monocytes, neutrophils and lymphocyte T cells
U937 lymphoma cells; 10 μM, U937, Lymphoma, 24 h
  uptake (internalization): most efficient
U937 lymphoma cells; 500 nm over 24 hours in U937 cells
  HSPG dependency of uptake (internalization): HSPG-dependent
[3]
  internalization seen by confocal microscopy: internalized into the cytoplasm of the non stressed neurons
U937 cells; 2 h
  intracellular concentration of transporter construct subsequent to uptake: 2.00
U937 cells; 4 h
  intracellular concentration of transporter construct subsequent to uptake: 2.24
U937 cells; 6 h
  intracellular concentration of transporter construct subsequent to uptake: 3.55
U937 cells; 24 h
  intracellular concentration of transporter construct subsequent to uptake: 17.3
Neutrophils (CD15)
  binding to cell population: binds to monocytes, neutrophils and lymphocyte T cells
[4]
  tissue distribution (accumulation): in the liver, spleen, and bone marrow predominantly
